Values after ≈ are worked out from the molar mass of the structure shown. Active and inactive are the calls of the source. No cut-off for these calls is given here.
How the values were obtained:
[1] = Cytotoxicity against LPS induced mouse BV-2 cells assessed as inhibition in cell viability at 20 uM measured by MTT assay
[2] = Inhibition of LPS induced NO production in mouse BV-2 cells by Griess reagent based analysis; type: functional, cell-based
[3] = target: Acetylcholinesterase (Electrophorus electricus) (UniProt O42275); test: Inhibition of electric eel AChE at 20 uM using acetylthiocholine iodide as substrate preincubated with enzyme for 20 mins followed by substrate addition and measured after 45 mins by Ellman's method; settings: time 65.0 min
[4] = Antioxidant activity assessed as DPPH radical scavenging activity at 20 uM incubated for 30 mins under dark condition by microplate reader based assay; type: functional
[5] = Solubility of the compound by UV-spectrometry; type: physicochemical
[6] = Permeability of compound by PAMPA-BBB assay; type: ADME; settings: read-out: permeability
[7] = Cytotoxicity against rat PC12 cells assessed as cell viability at 1 to 10 uM measured after 24 hrs by MTT assay relative to control; type: toxicity, cell-based, PC-12; settings: dose 1-10 µM, read-out: Activity
[8] = system: PC-12; test: Anti-ferroptotic activity against RSL-3 induced ferroptosis in rat PC12 cells assessed as increase in cell viability at 10 uM measured after 24 hrs by MTT assay relative to control; type: functional
[9] = system: PC-12; test: Neuroprotective activity against H2O2-induced neuronal death in rat PC12 cells assessed as increase in cell viability at 10 uM measured after 24 hrs by MTT assay relative to control; type: functional
[10] = system: BV-2; test: Antiinflammatory activity in mouse BV-2 cells assessed as […] LPS-induced TNFalpha production at 1 to 10 uM and measured after 24 hrs by ELISA; type: functional, cell-based; settings: dose 1-10 µM, DDE = dose-dependent effect
[11] = system: BV-2; test: Antiinflammatory activity in mouse BV-2 cells assessed as suppression of LPS-induced IL-1beta secretion at 10 uM and measured after 24 hrs by ELISA; type: functional, cell-based
[12] = target: Acetylcholinesterase (Electrophorus electricus, UniProt O42275); test: Mixed type inhibition of electric eel AChE by reciprocal Lineweaver-Burk plot analysis
[13] = system: BV-2; test: Antiinflammatory activity in mouse BV-2 cells assessed as increase in LPS-induced Arg1 level at 10 uM by ELISA; type: functional, cell-based
[14] = system: BV-2; test: Antiinflammatory activity in mouse BV-2 cells assessed as reduction in LPS-induced COX-2 expression at 0.5 uM by Western blot analysis relative to control; type: functional, cell-based
[15] = system: BV-2; test: Antiinflammatory activity in mouse BV-2 cells assessed as reduction in LPS-induced iNOS expression at 0.5 uM by Western blot analysis relative to control; type: functional, cell-based
[16] = system: BV-2; test: Antiinflammatory activity in mouse BV-2 cells assessed as reduction in LPS-induced iNOS expression at 0.1 to 5 uM by Western blot analysis relative to control; type: functional, cell-based; settings: dose 0.1-5 µM, DDE = dose-dependent effect
[17] = Metal chelating activity assessed as compound Zn2+ complex formation by measuring maximum absorption wavelength shift at 25 uM incubated for 30 mins by UV-visible spectrophotometry
[18] = system: BV-2; test: Antiinflammatory activity in mouse BV-2 cells assessed as reduction in LPS-induced COX-2 expression at 0.1 to 5 uM by Western blot analysis relative to control; type: functional, cell-based; settings: dose 0.1-5 µM, DDE = dose-dependent effect
[19] = Metal chelating activity assessed as Cu2+-compound complex formation by measuring maximum absorption wavelength shift at 25 uM incubated for 30 mins by UV-Visible spectrophotometry
[20] = Metal chelating activity assessed as Cu2+-compound complex formation at compound:Cu2+ molar ratio of 1:1 to 1:4 at 25 uM incubated for 30 mins by UV-visible spectrophotometry
[21] = Metal chelating activity assessed as compound Fe2+ complex formation by measuring maximum absorption wavelength shift at 25 uM incubated for 30 mins by UV-visible spectrophotometry
[22] = Metal chelating activity assessed as compound Mg2+ complex formation by measuring maximum absorption wavelength shift at 25 uM incubated for 30 mins by UV-visible spectrophotometry
[23] = Metal chelating activity assessed as compound Ca2+ complex formation by measuring maximum absorption wavelength shift at 25 uM incubated for 30 mins by UV-visible spectrophotometry
[24] = target: Prostaglandin G/H synthase 2 (Homo sapiens) (UniProt P35354); test: Inhibition of human COX2 at 40 uM by microplate reader assay
Prostaglandin G/H synthase 2 (Homo sapiens), sequence (P35354 whole entry, looked up): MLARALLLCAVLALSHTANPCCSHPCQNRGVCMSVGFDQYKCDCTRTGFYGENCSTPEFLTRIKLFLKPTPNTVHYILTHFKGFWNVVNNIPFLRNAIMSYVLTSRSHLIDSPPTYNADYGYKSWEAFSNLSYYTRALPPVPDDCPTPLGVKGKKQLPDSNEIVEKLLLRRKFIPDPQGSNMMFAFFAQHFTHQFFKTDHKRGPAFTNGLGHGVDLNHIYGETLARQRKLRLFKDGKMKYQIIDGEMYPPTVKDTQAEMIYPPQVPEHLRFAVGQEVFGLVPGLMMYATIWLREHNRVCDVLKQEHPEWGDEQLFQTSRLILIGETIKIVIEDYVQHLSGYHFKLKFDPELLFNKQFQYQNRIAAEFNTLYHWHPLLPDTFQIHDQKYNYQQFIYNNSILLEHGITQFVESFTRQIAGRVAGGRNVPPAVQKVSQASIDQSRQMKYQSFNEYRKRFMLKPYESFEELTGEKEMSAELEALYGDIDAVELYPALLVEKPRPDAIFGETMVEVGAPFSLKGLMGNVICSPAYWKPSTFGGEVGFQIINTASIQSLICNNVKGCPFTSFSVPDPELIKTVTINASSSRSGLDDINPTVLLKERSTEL

Acetylcholinesterase (Electrophorus electricus), sequence (O42275 24-633 limits assumed): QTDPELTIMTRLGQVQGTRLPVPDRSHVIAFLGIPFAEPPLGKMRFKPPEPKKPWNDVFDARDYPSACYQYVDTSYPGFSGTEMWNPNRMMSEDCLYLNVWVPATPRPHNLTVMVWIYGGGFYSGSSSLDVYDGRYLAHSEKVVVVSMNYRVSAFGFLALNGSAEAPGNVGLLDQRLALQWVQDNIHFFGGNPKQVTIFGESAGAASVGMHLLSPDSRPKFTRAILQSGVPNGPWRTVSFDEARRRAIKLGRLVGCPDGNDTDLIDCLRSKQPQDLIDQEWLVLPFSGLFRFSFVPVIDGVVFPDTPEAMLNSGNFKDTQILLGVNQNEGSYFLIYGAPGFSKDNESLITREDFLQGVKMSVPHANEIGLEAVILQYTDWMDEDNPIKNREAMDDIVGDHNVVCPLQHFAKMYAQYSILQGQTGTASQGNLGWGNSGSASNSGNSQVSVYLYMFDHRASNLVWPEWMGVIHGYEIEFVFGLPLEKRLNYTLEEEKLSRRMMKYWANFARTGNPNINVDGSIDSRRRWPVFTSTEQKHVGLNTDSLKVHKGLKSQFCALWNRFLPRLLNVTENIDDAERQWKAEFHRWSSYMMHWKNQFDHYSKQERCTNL
Acetylcholinesterase, sequence (O42275 whole entry): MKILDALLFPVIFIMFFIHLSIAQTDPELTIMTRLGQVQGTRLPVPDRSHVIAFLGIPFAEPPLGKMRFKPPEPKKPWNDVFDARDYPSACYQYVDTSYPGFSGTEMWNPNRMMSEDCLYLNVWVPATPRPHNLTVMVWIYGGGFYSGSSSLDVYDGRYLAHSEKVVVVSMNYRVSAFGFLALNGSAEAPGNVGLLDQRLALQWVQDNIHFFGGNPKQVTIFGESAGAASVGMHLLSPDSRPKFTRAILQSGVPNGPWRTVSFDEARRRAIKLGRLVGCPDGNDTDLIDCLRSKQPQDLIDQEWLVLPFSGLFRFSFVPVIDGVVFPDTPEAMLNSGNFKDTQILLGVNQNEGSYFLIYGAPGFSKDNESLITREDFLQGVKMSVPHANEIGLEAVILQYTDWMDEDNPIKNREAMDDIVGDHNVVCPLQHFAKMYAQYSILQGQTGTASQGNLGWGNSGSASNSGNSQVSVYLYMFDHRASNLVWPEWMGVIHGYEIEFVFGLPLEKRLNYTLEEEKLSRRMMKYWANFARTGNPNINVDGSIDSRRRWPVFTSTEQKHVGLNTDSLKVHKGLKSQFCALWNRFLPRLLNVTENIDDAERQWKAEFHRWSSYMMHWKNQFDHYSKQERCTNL

SMILES: N#Cc1ccc(CO/N=C(\Cn2ccnc2)c2ccc3c(c2)OCO3)cc1
- viability at 20 µM ([1]; BV-2 cells): 91.6%
- EC50 [2]: 4.24 µM

SMILES: CC1(C)Oc2ccc(/C(Cn3ccnc3)=N/OC(=O)c3ccc4ccccc4c3Br)cc2O1
- inhibition [3]: 72%
- viability at 20 µM ([1]; BV-2 cells): 90.8%
- EC50 [2]: 6.5 µM

SMILES: CC1(C)Oc2ccc(/C(Cn3ccnc3)=N/OC(=O)c3ccc(Cl)cc3)cc2O1
- viability at 20 µM ([1]; BV-2 cells): 90.5%
- EC50 [2]: 5.52 µM

SMILES: CC1(C)Oc2ccc(/C(Cn3ccnc3)=N/OC(=O)c3cccc4ccccc34)cc2O1
- Activity [4]: 36.2%
- viability at 20 µM ([1]; BV-2 cells): 91.1%
- EC50 [2]: 1.62 µM

SMILES: CC1(C)Oc2ccc(/C(Cn3ccnc3)=N/OC(=O)Cc3cccc4ccccc34)cc2O1
- solubility [5]: 509 µg/mL (≈ 1150 µM)
- Papp [6]: 9.2 ×10⁻⁶ cm/s
- viability at 24 h, up to 10 µM [7]: > 95%
- Activity [8]: 59%
- Activity [9]: 84%
- Activity [10]: Dde
- viability at 20 µM ([1]; BV-2 cells): 94.8%
- EC50 [2]: 1.02 µM
- Activity [11]: Active

SMILES: CC1(C)Oc2ccc(/C(Cn3ccnc3)=N/OC(=O)/C=C/c3ccc(F)cc3)cc2O1
- viability at 20 µM ([1]; BV-2 cells): 95.7%
- EC50 [2]: 5.96 µM

SMILES: C#CCO/N=C(\Cn1ccnc1)c1ccc(OC)cc1
- viability at 20 µM ([1]; BV-2 cells): 95.9%
- EC50 [2]: 9.07 µM

SMILES: Cc1cccc(C(=O)O/N=C(\Cn2ccnc2)c2ccc3c(c2)OC(C)(C)O3)c1
- Activity [4]: 29.8%
- viability at 20 µM ([1]; BV-2 cells): 96.1%
- EC50 [2]: 1.71 µM

SMILES: C#CCO/N=C(\Cn1ccnc1)c1ccc(Cl)cc1
- viability at 20 µM ([1]; BV-2 cells): 92.4%
- EC50 [2]: 15.5 µM

SMILES: CC1(C)Oc2ccc(/C(Cn3ccnc3)=N/OC(=O)/C=C/c3ccc(Cl)cc3)cc2O1
- inhibition [3]: 71%
- viability at 20 µM ([1]; BV-2 cells): 91%
- EC50 [2]: 3.71 µM

SMILES: C#CCO/N=C(\Cn1ccnc1)c1ccc(I)cc1
- viability at 20 µM ([1]; BV-2 cells): 92.1%
- EC50 [2]: 12.7 µM

SMILES: Cc1ccc(C(=O)O/N=C(\Cn2ccnc2)c2ccc3c(c2)OC(C)(C)O3)cc1
- viability at 20 µM ([1]; BV-2 cells): 98.2%
- EC50 [2]: 9.05 µM

SMILES: c1ccc(CO/N=C(\Cn2ccnc2)c2ccc3c(c2)OCO3)cc1
- viability at 20 µM ([1]; BV-2 cells): 97.8%
- EC50 [2]: 4.43 µM

SMILES: FC(F)(F)c1ccc(CO/N=C(\Cn2ccnc2)c2ccc3c(c2)OCO3)cc1
- viability at 20 µM ([1]; BV-2 cells): 92.8%
- EC50 [2]: 2.37 µM

SMILES: CC1(C)Oc2ccc(/C(Cn3ccnc3)=N/OC(=O)/C=C/c3ccc(C(F)(F)F)cc3)cc2O1
- Activity [4]: 27.7%
- viability at 20 µM ([1]; BV-2 cells): 92.1%
- EC50 [2]: 1.03 µM

SMILES: C=CCO/N=C(\Cn1ccnc1)c1ccc2c(c1)OC(C)(C)O2
- viability at 20 µM ([1]; BV-2 cells): 96.4%
- EC50 [2]: 2.22 µM

SMILES: NC(=O)N1c2ccccc2C=Cc2ccccc21 [CARBAMAZEPINE]
- Papp [6]: 10.2 ×10⁻⁶ cm/s

SMILES: Clc1ccc(CO/N=C(\Cn2ccnc2)c2ccc(Cl)cc2Cl)c(Cl)c1 [OXICONAZOLE]
- viability at 20 µM ([1]; bv-2): 96.2%

SMILES: CC(C)=CCO/N=C(\Cn1ccnc1)c1ccc2c(c1)OCO2
- Activity [4]: 4.25%
- viability at 20 µM ([1]; BV-2 cells): 93.3%
- EC50 [2]: 1.76 µM

SMILES: C#CCO/N=C(\Cn1ccnc1)c1ccc(C(F)(F)F)cc1
- viability at 20 µM ([1]; BV-2 cells): 93.7%
- EC50 [2]: 8.55 µM

SMILES: C#CCO/N=C(\Cn1ccnc1)c1ccc2c(c1)OCO2
- viability at 20 µM ([1]; BV-2 cells): 92.5%
- EC50 [2]: 2.07 µM

SMILES: CC1(C)Oc2ccc(/C(Cn3ccnc3)=N/OC(=O)c3ccc4ccccc4c3)cc2O1
- solubility [5]: 316 µg/mL (≈ 738 µM)
- Ki [12]: 0.308 µM
- Papp [6]: 10.7 ×10⁻⁶ cm/s
- inhibition [3]: 67%
- viability at 24 h, up to 10 µM [7]: > 95%
- Activity [8]: 58%
- Activity [9]: 83%
- Activity [4]: 25.5%
- Activity [13]: Active
- Activity [14]: Active
- Activity [15]: Active
- Activity [16]: Dde
- Activity [10]: Dde
- viability at 20 µM ([1]; BV-2 cells): 94.1%
- EC50 [2]: 0.57 µM
- Activity [17]: Active
- Activity [11]: Active
- Activity [18]: Dde
- Activity [19]: Active
- Activity [20]: Active
- Activity [21]: Active
- Activity [22]: Active
- Activity [23]: Active
- inhibition [24]: 92%

Reference: ChEMBL document CHEMBL5154664, “Imidazolylacetophenone oxime-based multifunctional neuroprotective agents: Discovery and structure-activity relationships” (Eur J Med Chem, 2022)
